Four molecules from PMC8228075, “In Vitro and In Silico Characterization of G-Protein Coupled Receptor (GPCR) Targets of Phlorofucofuroeckol-A and Dieckol” (Marine Drugs, 2021) can be followed below.

Common to all, as to type: cell-based
In assay [1] the target is T1, Cannabinoid receptor 1 (CB1R) (Homo sapiens, UniProt P21554).
T1 construct: host or cells: CHO cells
Nature of the assay: hCB1R functional antagonist assay (cAMP, HTRF, CHO cells). The following applies: reference antagonist; read-out: Reference Drugs, IC50. How it is done: (§1) The in-house assay protocol and experimental conditions are reported in our previous reports. The functional effect of dieckol and PFF-A was characterized based on their modulation effect on cytosolic Ca^2+ ion mobilization using a fluorimetric detection method or by measuring their effect on cAMP modulation using homogeneous time-resolved fluorescence (HTRF) detection.
(§2) Functional activity of phlorotannins over hA2AR, hα2CAR, hCB1R, GLP-1R, and h5-HT1BR was determined by measuring their effects on cAMP production by the HTRF detection method using transected cells expressing human cloned receptors.
The transfected CHO cells were suspended in HBSS buffer (Invitrogen) complemented with 20 mM HEPES (pH 7.4). […] After 30 min of incubation at 37 °C, the cells were lysed and the fluorescence acceptor (D2-labeled cAMP) and fluorescence donor (anti-cAMP antibody labeled with europium cryptate) were added.
On the technique in general: In TR-FRET formats the signal depends on donor and acceptor labels being close together.

The next assay addresses h5-HT1BR (Homo sapiens, UniProt P28222). Nature of the assay: h5-HT1BR functional antagonist assay (cAMP, HTRF, Hela cells). On the procedure: as §1, §2
Concisely, a plasmid containing the GPCR gene of interest (5-HT1B) was transfected into Hela cells. The resulting stable transfectants were suspended in HBSS buffer (Invitrogen, Carlsbad, CA, USA) containing 20 mM HEPES (pH 7.4), […], 1 mg/mL glucose, and 500 μM IBMX and distributed in microplates at a density of 2 × 10^4 cells/well. […] Then, the cells were lysed and a fluorescence acceptor (D2-labeled cAMP) and fluorescence donor (anti-cAMP antibody with europium cryptate) were added following 60 min incubation at RT.

Assay [2] has as its target T2, Alpha-2A adrenergic receptor (hα2AAR) (Homo sapiens, UniProt P08913).
T2 construct: host or cells: rat basophil leukemia cells
T2 sequence (P08913 1-465): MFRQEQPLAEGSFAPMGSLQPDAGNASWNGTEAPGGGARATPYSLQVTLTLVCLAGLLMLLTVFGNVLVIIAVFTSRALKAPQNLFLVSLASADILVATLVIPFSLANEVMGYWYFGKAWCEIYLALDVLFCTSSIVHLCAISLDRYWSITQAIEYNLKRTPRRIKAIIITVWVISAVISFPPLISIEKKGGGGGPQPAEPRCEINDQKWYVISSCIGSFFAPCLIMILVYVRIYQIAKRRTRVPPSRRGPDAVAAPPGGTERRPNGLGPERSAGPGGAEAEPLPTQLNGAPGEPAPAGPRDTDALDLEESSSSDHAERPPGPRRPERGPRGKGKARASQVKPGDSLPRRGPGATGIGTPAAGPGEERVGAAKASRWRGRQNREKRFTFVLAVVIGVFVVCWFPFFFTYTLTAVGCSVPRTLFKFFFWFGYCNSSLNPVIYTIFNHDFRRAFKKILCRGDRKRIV
Description: hα2AAR functional antagonist assay (Ca2+ mobilization, rat basophil leukemia cells). The following applies: reference antagonist; read-out: Reference Drugs, IC50.
From the text: as §1
The rat basophil leukemia cells were distributed in microplates at a density of 1.1 × 10^4 cells/well after suspending in a HBSS buffer (Invitrogen) containing 20 mM HEPES. Then, the fluorescent probe (Fluo8, AAT Bioquest) mixed with probenecid in HBSS buffer (Invitrogen) complemented with 20 mM Hepes (Millipore) (pH 7.4) was added into each well incubated for 60 min at 30 °C. Thereafter, the assay plates were positioned in a microplate reader (FlipR Tetra, Molecular Device) and we added test compounds, reference agonist/antagonist or HBSS buffer (basal control). Change in fluorescence intensity which varies proportionally to the free cytosolic Ca^2+ ion concentration was measured.

Assay [3] concerns the target T3, Free fatty acid receptor 1 (FFA1R) (GPR40) (Homo sapiens, UniProt O14842).
T3 construct: host or cells: HEK-293 cells
Nature of the assay: FFA1R/GPR40 functional agonist assay (Ca2+ mobilization, HEK-293 cells). The following applies: reference agonist; read-out: Reference Drugs, EC50. How it is done:
The in-house assay protocol and experimental conditions are reported in our previous reports. […] Then, the mixture of fluorescent probe (Fluo4 Direct, Invitrogen) and probenecid in HBSS buffer (Invitrogen) complemented with 20 mM Hepes (Invitrogen) (pH 7.4) was added into each well and incubated for 60 min at 37 °C, followed by 15 min incubation at 22 °C. Thereafter, the assay plates were positioned in a CellLux microplate reader (PerkinElmer, Waltham, MA, USA) which was used for the addition of the following: For agonist assay-test compound, reference agonist, or HBSS buffer (basal control). Linoleic acid at 100 μM was added in separate assay wells for stimulated control measurement.
(Calcium flux is commonly read through the fluorescence of an indicator in the cells.)

T1 sequence (P21554 whole entry): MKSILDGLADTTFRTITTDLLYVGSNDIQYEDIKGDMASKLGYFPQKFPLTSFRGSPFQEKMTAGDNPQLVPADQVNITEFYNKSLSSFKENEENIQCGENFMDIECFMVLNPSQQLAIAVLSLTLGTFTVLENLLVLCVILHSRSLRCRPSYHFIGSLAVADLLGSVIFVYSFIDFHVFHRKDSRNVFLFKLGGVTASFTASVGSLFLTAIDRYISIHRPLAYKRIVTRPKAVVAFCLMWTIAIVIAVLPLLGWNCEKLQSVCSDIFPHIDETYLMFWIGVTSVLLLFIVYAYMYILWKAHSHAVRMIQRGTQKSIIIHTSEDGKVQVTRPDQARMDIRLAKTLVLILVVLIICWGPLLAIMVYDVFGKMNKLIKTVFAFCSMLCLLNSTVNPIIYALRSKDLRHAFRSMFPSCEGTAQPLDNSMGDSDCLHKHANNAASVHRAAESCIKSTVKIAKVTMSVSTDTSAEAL
Sequence of h5-HT1BR (P28222 whole entry): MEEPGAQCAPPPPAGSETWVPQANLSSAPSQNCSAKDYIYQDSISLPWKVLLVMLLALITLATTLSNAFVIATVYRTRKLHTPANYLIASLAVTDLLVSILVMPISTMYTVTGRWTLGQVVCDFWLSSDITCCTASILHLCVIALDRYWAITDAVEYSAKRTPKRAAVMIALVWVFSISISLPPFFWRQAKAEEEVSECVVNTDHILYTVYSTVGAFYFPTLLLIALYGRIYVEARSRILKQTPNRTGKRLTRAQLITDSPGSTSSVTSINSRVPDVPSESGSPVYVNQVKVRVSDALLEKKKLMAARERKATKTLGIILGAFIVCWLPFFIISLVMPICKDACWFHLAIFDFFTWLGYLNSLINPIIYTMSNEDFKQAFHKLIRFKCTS
T3 sequence (O14842 whole entry): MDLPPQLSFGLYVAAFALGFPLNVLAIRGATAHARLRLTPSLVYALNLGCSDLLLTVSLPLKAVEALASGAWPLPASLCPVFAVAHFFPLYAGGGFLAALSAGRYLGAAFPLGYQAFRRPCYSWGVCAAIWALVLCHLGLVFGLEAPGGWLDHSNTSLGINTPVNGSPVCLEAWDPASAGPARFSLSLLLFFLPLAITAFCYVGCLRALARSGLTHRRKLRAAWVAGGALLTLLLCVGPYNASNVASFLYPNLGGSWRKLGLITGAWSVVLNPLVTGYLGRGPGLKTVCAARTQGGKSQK

Consider `Cc1c(C(=O)NN2CCOCC2)nn(-c2ccc(Cl)cc2Cl)c1-c1ccc(I)cc1` [AM 281, reference compound], for which the IC50 in assay [1] was determined as 77 nM. As for `CN(C)CCCc1cc(C(=O)Nc2ccc(-c3ccncc3)cc2)ccc1O` [GR55562, reference compound], half-maximal inhibition against h5-HT1BR (IC50) required 23 nM.

With `COC1(C2=NCCN2)COc2ccccc2O1` (stereo not shown) [RX-821002, reference compound], the IC50 in assay [2] turned out to be 17 nM. `CCCCC/C=C\C/C=C\CCCCCCCC(=O)O` [linoleic acid, reference compound]: the EC50 in assay [3] was determined as 10000 nM.

As a reminder, the IC50 is the concentration at which inhibition is half-maximal. The term EC50 denotes the concentration needed to bring the measured effect to its halfway point.
